“And” between values parts separate entries of the source, which are not always exact repeats. Equal entries are not always repeated.
Tests used:
[1] = molecular target: T1, hIL17RE (Homo sapiens, UniProt Q8NFR9); assay: ELISA, SM17 specificity against IL-17 receptor subunits (IL17RE); type: binding; conditions: 0.4 to 0.00064 μg/mL
T1 construct: purchased R&D systems
T1 sequence (Q8NFR9 24-667): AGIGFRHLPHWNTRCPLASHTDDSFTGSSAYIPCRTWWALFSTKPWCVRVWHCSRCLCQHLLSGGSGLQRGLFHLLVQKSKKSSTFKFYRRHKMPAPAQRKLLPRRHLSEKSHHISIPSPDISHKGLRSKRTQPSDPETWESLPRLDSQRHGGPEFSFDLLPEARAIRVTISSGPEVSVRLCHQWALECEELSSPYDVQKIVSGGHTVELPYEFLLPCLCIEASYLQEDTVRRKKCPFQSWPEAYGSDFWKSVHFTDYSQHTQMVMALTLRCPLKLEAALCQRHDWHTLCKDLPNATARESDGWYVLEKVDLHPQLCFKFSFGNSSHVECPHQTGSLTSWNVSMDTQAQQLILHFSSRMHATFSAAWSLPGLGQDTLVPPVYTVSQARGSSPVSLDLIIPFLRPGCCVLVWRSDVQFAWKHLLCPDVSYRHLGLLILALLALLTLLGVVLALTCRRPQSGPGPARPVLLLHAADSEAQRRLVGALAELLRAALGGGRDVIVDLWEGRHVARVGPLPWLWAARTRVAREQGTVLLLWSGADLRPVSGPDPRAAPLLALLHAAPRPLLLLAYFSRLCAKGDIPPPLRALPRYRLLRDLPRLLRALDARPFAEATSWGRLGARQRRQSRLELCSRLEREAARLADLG
Method: A standard ELISA method was used to determine the specificity of SM17 against other human IL17 receptor subunits. Similarly, serially diluted SM17 at different concentrations (final concentrations at 0.4, 0.08, 0.016, 0.0032 and 0.00064 μg/m, respectively) was added to the wells of ELISA plates coated either with human IL-17 receptor subunits A, C, D and E (IL17RA, IL17RC, IL17RD, and IL17RE) (R&D systems).

[2] = tested on: cynomolgus IL17RB; assay: ELISA, SM17 binding to coated IL-17RB protein (cynomolgus); conditions: two wells
Method: A standard enzyme-linked immunosorbent assay (ELISA) method was used to determine the species specificity of SM17 against IL-17RB proteins. Briefly, IL-17RB proteins from human, mouse, cynomolgus or rhesus monkey (R&D systems, Minneapolis, MN) were diluted to 2.5 μg/ml in PBS and 50 μl of IL-17RB proteins were added to each well of ELISA strip. The strips were sealed with parafilm and incubated at 4° C. overnight for coating.
On the next day, strips were washed thrice with washing buffer (0.05% Tween 20 in PBS) and blocked with 100 μl per well with blocking buffer (3% BSA in PBS) for 2 hours RT before serially diluted SM17 (at a final concentration of 10, 2, 0.4, 0.08, 0.016, 0.0032, and 0.00064 μg/ml, respectively) was added.

[3] = tested on: wild type HEK293; assay: Flow cytometry, SM17 binding to wild type HEK293; conditions: SM17 1 μg/ml
Method: (§1) HEK293 cells (ATCC, Manassas, VA) transfected either with full-length human or rhesus monkey IL-17RB (SinoBiological, Beijing, China) were examined for binding to SM17 following standard protocol for flow cytometry. Wild-type HEK293 stained with IgG4 isotype control (Sino Biological) was used as the negative control and for gating purpose. Briefly, HEK293 cells at a density of 3×10^5 cells were seeded into each well of a 6-well plate. On the next day, human or rhesus Il-17RB full length cDNA were first cloned into pCMV3-untagged expression plasmid through standard molecular cloning technique, and then expression plasmids for human or rhesus IL-17RB were transfected into HEK293 cells by lipofection (Lipofectamine 3000 reagent; Thermo Fisher Scientific). Transfected cells were trypsinized, harvested, and fixed with 4% paraformaldehyde (5 minutes). SM17, or human IgG4 control at 1 μg/ml in washing buffer (3% BSA in PBS) were added to the resuspend cells for incubation at RT for 30 min before Alexa Fluor® 647-conjugated goat anti-human IgG specific antibody (1:2000 dilution in washing buffer) (Jackson ImmunoResearch) was added for flow cytometry analysis using the BD FACSVerse cell analyzer (Becton Dickenson, Franklin Lakes, NJ).

[4] = molecular target: T2, human IL17RB expressed on HEK293 cells (Homo sapiens, UniProt Q9NRM6); assay: Flow cytometry, SM17 binding to HEK293 transfected with human IL-17RB; conditions: SM17 1 μg/ml
T2 construct: transfected either with full-length human or rhesus monkey IL-17RB (SinoBiological, Beijing, China); host or cells: HEK293
T2 sequence (Q9NRM6 18-502): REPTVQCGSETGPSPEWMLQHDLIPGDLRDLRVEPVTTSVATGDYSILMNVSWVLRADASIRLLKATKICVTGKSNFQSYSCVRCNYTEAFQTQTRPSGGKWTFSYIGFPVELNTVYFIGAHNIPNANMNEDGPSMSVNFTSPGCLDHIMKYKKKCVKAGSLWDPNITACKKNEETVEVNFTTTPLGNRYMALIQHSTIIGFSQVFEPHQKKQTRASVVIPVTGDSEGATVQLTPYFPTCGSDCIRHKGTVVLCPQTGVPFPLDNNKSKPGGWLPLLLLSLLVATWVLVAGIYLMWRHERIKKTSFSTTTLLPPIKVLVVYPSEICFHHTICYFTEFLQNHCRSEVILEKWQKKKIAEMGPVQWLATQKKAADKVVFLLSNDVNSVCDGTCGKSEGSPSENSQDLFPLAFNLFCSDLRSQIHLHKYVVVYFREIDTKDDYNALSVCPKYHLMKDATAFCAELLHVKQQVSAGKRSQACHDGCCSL
Method: as §1

[5] = molecular target: T3, IL-17RB (Homo sapiens, UniProt Q9NRM6); assay: Bio-Layer Interferometry (Octet), SM17 binding kinetics to human IL17RB; conditions: trials 1 and 2
T3 construct: purchased R&D systems
T3 sequence (Q9NRM6 18-502): T2 sequence (Q9NRM6 18-502)
Method: Bio-Layer Interferometry analysis (Octet ReD96 system, Sartorius) was employed to determine the binding affinity of SM17 against human and cynomolgus monkey IL17RB protein (R&D systems). Briefly, SM17 (20 μg/mL) was immobilized on biosensors via interactions with anti-human Fab CH1; serially diluted Cyno-IL17RB and Human-IL17RB (at a concentration of 158.7 nM, 79.4 nM and 39.7 nM, respectively) were subsequently added following standard operation protocols of the Octet ReD96 system to plot out the association and dissociation curve. Irrelevant antibody (SM03, anti-human CD22 chimeric IgG1 antibody, SinoMab BioScience Limited) was used as the control reference. Of note, the KD is within picomolar-single digit nanomolar range.

With “SM17: humanized anti-IL17RB monoclonal antibody, human IgG4 isotype; HC SEQ ID NO: 32, LC SEQ ID NO: 33” the “binding of SM17 to IL17RE (in words)” value [1] was “No obvious bindings”, the “OD 450 nm Absorption, cynomolgus IL17RB” value ([2]; SM17 0.016 μg/mL) was 0.34 and the “OD 450 nm Absorption, cynomolgus IL17RB” value ([2]; SM17 0.08 μg/mL) was 0.72 and 0.74. The “OD 450 nm Absorption, cynomolgus IL17RB” value ([2]; SM17 0.4 μg/mL) was 0.89 and 0.97, the “OD 450 nm Absorption, cynomolgus IL17RB” value ([2]; SM17 2 μg/mL) was 1.13 and 1.12 and the “OD 450 nm Absorption, cynomolgus IL17RB” value ([2]; SM17 10 μg/mL) was 1.33 and 1.37. For the same substance, the “binding of SM17 to wild type HEK293” value [3] was about 7%, the “binding of SM17 to hIL17RB-HEK293” value [4] was 46% and the Ka [5] was 222000 M⁻¹ s⁻¹ and 183000 M⁻¹ s⁻¹.
